Source: US6254898A, “Nutraceutical composition for protection against solar radiation” (Protective Factors, Inc., priority 2000, dated 2001)

Tests used:
[1] = target: T1, Trypsin Type III from bovine pancreas (Bos taurus, UniProt P00760); experiment: Trypsin inhibitory activity (BAPNA substrate); assay type: biochemical; conditions: at the dilutions tested for the blend
T1 construct: purchased Sigma; host or cells: bovine pancreas
T1 sequence (P00760 24-246): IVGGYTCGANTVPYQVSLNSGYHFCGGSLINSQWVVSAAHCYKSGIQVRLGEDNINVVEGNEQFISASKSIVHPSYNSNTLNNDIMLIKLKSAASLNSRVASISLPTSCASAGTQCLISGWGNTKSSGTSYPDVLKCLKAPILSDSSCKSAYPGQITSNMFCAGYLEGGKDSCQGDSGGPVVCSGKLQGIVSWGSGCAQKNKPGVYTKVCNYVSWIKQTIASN
Description: Serine protease inhibitory activity was determined in vitro by measuring the trypsin inhibitory activity of the blend and its components. Trypsin inhibitory activity was determined by the spectrophotometric determination of the release of p-nitroaniline from a synthetic substrate N-α-benzoyl-DL-arginine-p-nitroanilide hydrochloride (BAPNA) (Parellada, J. and Guinea, M., J. Nat. Prod., 58: 823-829, 1995; Geiger, R. and Fritz, H., In Methods of Enzymatic Analysis, Bergmeyer, H. V., et al (Eds), Verlag-Chemie, Basel, Switzerland, Vol. V, p. 119-129, 1984).
Trypsin Type III from bovine pancreas, BAPNA, and p-nitroaniline were obtained from Sigma. The inventive blend and its components were supplied in a capsule containing: green tea extract, 250 mg; lutein, 15 mg; Se, 50 mcg; and lipoic acid, 50 mg. The capsule's contents were extracted in ethanol [0.5 g (contents of one capsule) in 5 ml ethanol and the components at concentrations incorporated in the blend in 5 ml ethanol].
Aliquots of the enzyme solution (0.25 ml of a 1060 units/ml solution in 0.05 M Tris buffer, pH 7.8) and the buffer (0.25 ml) with various concentrations of the test extracts and without extracts (reference solution) were pre-incubated at 37° C. for 10 min. Blank samples were prepared by inactivating the enzyme with 0.5 ml of 2 M acetic acid before incubation. The enzymatic reaction was started by adding to the reaction mixture 1.25 ml of the substrate solution (1 mM in 0.05 M Tris buffer, pH 7.8). The mixture was incubated for 10 min and the reaction was stopped by adding 0.5 ml of 2 M acetic acid. The p-nitroaniline released was measured using a spectrophotometer at 410 nm. The results are the means ±SD of triplicate measurements. The inhibitory activity is expressed as the inhibition ratio represented by the following formula: [formula]

[2] = system: fibroblast cell line BALB/3T3 clone A31; experiment: UV protecting activity: viability of UVA-irradiated fibroblasts (MTT assay); assay type: cell-based, mouse; conditions: UVA-irradiated BALB/3T3 cells
Description: Exposure of skin to sunlight especially to ultraviolet A (320-380 nm) radiation has been reported to induce photochemical generation of reactive oxygen species, resulting in membrane lipid peroxidation, photodamage to DNA, and inactivation of fibroblasts. […] A mammalian fibroblast cell line was used to determine the UV-protective action of the blend and the components at a cellular level.
Dulbecco's Modified Eagle Medium (DMEM) with 4 mM L-glutamine and 110 mg/l sodium pyruvate, Dulbecco's phosphate buffered saline (DPBS) without calcium or magnesium, fetal bovine serum, trypsin-EDTA solution, 2-thiobarbituric acid, MTT, and trichloroacetic acid were obtained from Sigma. […] The capsule's contents were extracted in ethanol [0.5 g (contents of one capsule) in 5 ml ethanol and the components at concentrations incorporated in the blend in 5 ml ethanol]. The extracts were diluted using the culture medium or DPBS.
Cells were maintained in 250 ml Corning flasks having a 0.2 μ vented cap in 10 ml of DMEM supplemented with 10% fetal bovine serum. The cultures were incubated at 37° C. in a CO2 incubator with 90% air and 10% CO2. The cells were subcultured every 5 days.
Assays were performed in 35 mm Costar tissue culture plates. The cells were plated at a density of 90,000 cells per well in the growth medium and allowed to attach and grow for 48 hr. The medium was changed after 36 hr with fresh medium containing the extracts at different concentrations. After 12 hr of incubation with the test extracts, the cells were washed with DPBS to remove the original medium. One ml of DPBS with or without the test extracts was added to each dish. The cells were incubated for 1 hr before exposure to UV irradiation. Non-irradiated cells were used as the control. […] Biophys. […] The results are the means ±SD of triplicate measurements.

[3] = DPPH radical reduction (cell-free spectrophotometric assay); assay type: biochemical; conditions: at the dilutions tested
Description: (§1) The cytotoxic effects of ultraviolet A irradiation on mammalian cells (e.g., skin fibroblasts) have been attributed largely to photoreactions that generate reactive oxygen species, such as superoxide and hydrogen peroxide. The free radical scavenging activity of the blend and its components was determined in vitro using spectrophotometric assays (Yen, G. C. and Duh, P. D., J. Agric. Food Chem., 42: 629-632, 1994; Facino, R. M., Carini, M., Aldini, G., Berti, F., and Rossoni, G., Planta Med., 65: 614-619, 1999). The superoxide scavenging activity was assessed in a non-enzymatic system. The reduction of the stable free radical DPPH (2,2-diphenyl-1-picrylhydrazyl radical), indicative of the neutralizing action upon the already formed free radicals, also was determined in a cell-free system. […]
(§2) The superoxide scavenging activity was determined in a superoxide generating system containing 20 μM of phenazine methosulfate, 156 μM of β-NADH, 50 mM of phosphate buffer, and the extracts at various levels. The reaction was initiated by adding nitroblue tetrazolium (25 μM) and the reduction was monitored using a spectrophotometer at 556 nm. […] The reduction in absorbence was measured using a spectrophotometer at 515 nm. […] The percent inhibition is expressed as the quenching ratio represented by the following formula: [formula]

[4] = Superoxide scavenging activity in a non-enzymatic superoxide generating system; assay type: biochemical; conditions: at the dilutions tested
Description: as §1, §2

For `C[Se]CC[C@H](N)C(=O)O` [selenium, selenomethionine], the “trypsin: activity of the components” value [1] was “active”, the “UV protection: activity of the components” value (from here on “UV protection: activity”) [2] was “active” and the “range of concentrations at which the component was active in the UV protection assay” value [2] was 0.001 to 1 µg/mL.

With `CC1=C[C@H](O)CC(C)(C)[C@H]1/C=C/C(C)=C/C=C/C(C)=C/C=C/C=C(C)/C=C/C=C(C)/C=C/C1=C(C)C[C@@H](O)CC1(C)C` [lutein] the “trypsin: activity of the components” value [1] was “active”, the “DPPH: activity among the four components” value [3] was “most active” and the “UV protection: activity” value [2] was “active”.

In the case of `O=C(O)CCCCC1CCSS1` (stereo not shown) [lipoic acid, 6,8-thioctic acid], the “trypsin: activity of the components” value [1] is reported as “active”, the “superoxide: activity among the four components” value [4] is reported as “most active” and the “UV protection: activity” value [2] is reported as “active”. For the same compound, the “range of concentrations at which the component was active in the UV protection assay” value [2] was 1 to 1000 µg/mL.
